Results reported in patent US12410153B2, “Compounds, compositions and methods” (Avalo Therapeutics, Inc., priority 2014, dated 2025).
Where two headings read alike, the source gives them in different places.

Experiment: Repeated once-daily oral dosing with food (Days 1-7) in healthy subjects, PK and PD
Format: in vivo, human
Details: for Cmax: read-out: Cmax, Mean (SD); for AUC(0-inf): read-out: AUCinf, Mean (SD)
Experimental: A randomized, double-blind, placebo-controlled, parallel-dose group in-patient study is conducted to investigate the pharmacodynamic (PD) effects of crystalline Form II of Compound (I) in healthy subjects.
The study is designed as a three-part, sequential study. The sequential nature of the study ensures that a range of doses are investigated first in a young, healthy population (Part 1) before proceeding to higher doses in the healthy population and the comparator populations (intermediate age and elderly) (Parts 2 and 3). For the purposes of this study, “young” refers to a subject who is 18 to 45 years of age, “intermediate age” refers to a subject who is 46 to 64 years of age, and “elderly” refers to a subject who is 65 years of age or older.
After a screening period of up to 21 days (Days −23 to −3), 16 healthy, young male and female subjects are randomly assigned to a dose group as shown in Table 9.
Each parallel dose group is balanced for gender (approximately equal number of males and females). The randomized subjects are domiciled from Day −1 through Day 8. On Day −1, the subjects receive placebo tablets in the fed state and undergo ambulatory blood pressure monitoring (ABPM) and safety assessments to establish time-matched baselines. On Days 1-7, the subjects receive the study drug in the fed state and undergo safety, pharmacokinetic (PK) and pharmacodynamics (PD) assessments. On Days 8-11, follow-up PK and safety assessments are performed.
Safety assessments include Clinician-Administered Dissociative States Scale (CADSS), Columbia-Suicide Severity Rating Scale (C-SSRS), concomitant medication, adverse event (AE) and vital sign assessments. In PK assessments, blood samples are taken and analyzed to determine PK parameters such as Cmax, Tmax, AUC0-24, and t1/2. PD assessments include ABPM, plasma brain-derived neurotrophic factor (BDNF) measurements, and Profile of Mood States (POMS) assessments.
After a screening period of up to 21 days (Days −23 to −3), 16 subjects (8 healthy, young male and female subjects, and 8 healthy, intermediate age male and female subjects) are randomly assigned to a dose group as shown in Table 10.
After a screening period of up to 21 days (Days −23 to −3), 16 subjects (8 healthy, young male and female subjects, and 8 healthy, elderly male and female subjects) are randomly assigned to a dose group as shown in Table 11.

[1] = both sexes, human, plasma, oral, 12 mg, young subjects, 12 mg, Day 7
[2] = both sexes, human, plasma, oral, 16 mg, young subjects, 16 mg, Day 7
[3] = both sexes, human, plasma, oral, 20 mg, young subjects, 20 mg, Day 7

Cc1ccc(COC(=O)N2CC[C@H](CNc3ncccn3)[C@H](F)C2)cc1 [Form II, 4-methylbenzyl (3S, 4R)-3-fluoro-4-[(pyrimidin-2-ylamino)methyl] piperidine-1-carboxylate]
AUC(0-t) (both sexes, human, plasma, oral, 12 mg, young subjects, 12 mg, Day 1, read-out: AUC0-24, Mean (SD)): 1860 ng·h/mL
AUC(0-t) (both sexes, human, plasma, oral, 12 mg, young subjects, 12 mg, Day 1, read-out: AUClast, Mean (SD)): 1840 ng·h/mL
Cmax (both sexes, human, plasma, oral, 12 mg, young subjects, 12 mg, Day 1): 239 ng/mL
Vd/F (both sexes, human, plasma, oral, 12 mg, young subjects, 12 mg, Day 1, read-out: Vz/F, Mean (SD)): 197 L
Tmax (both sexes, human, plasma, oral, 12 mg, young subjects, 12 mg, Day 1, read-out: tmax, Mean (SD)): 1.77 h
Tmax (both sexes, human, plasma, oral, 12 mg, young subjects, 12 mg, Day 1, read-out: tmax, Median): 1.5 h
AUC(0-t) (both sexes, human, plasma, oral, 12 mg, young subjects, 12 mg, Day 7, read-out: AUC0-24, Mean (SD)): 3060 ng·h/mL
AUC(0-inf) [1]: 5930 ng·h/mL
AUC(0-t) (both sexes, human, plasma, oral, 12 mg, young subjects, 12 mg, Day 7, read-out: AUClast, Mean (SD)): 5610 ng·h/mL
Cmax [1]: 274 ng/mL
Vd/F (both sexes, human, plasma, oral, 12 mg, young subjects, 12 mg, Day 7, read-out: Vss/F, Mean (SD)): 115 L
half-life (both sexes, human, plasma, oral, 12 mg, young subjects, 12 mg, Day 7, read-out: t1/2, Mean (SD) (converted)): 20.5 h
Tmax (both sexes, human, plasma, oral, 12 mg, young subjects, 12 mg, Day 7, read-out: tmax, Mean (SD)): 2.42 h
Tmax (both sexes, human, plasma, oral, 12 mg, young subjects, 12 mg, Day 7, read-out: tmax, Median): 2.5 h
AUC(0-t) (both sexes, human, plasma, oral, 16 mg, young subjects, 16 mg, Day 1, read-out: AUC0-24, Mean (SD)): 2660 ng·h/mL
AUC(0-t) (both sexes, human, plasma, oral, 16 mg, young subjects, 16 mg, Day 1, read-out: AUClast, Mean (SD)): 2630 ng·h/mL
Cmax (both sexes, human, plasma, oral, 16 mg, young subjects, 16 mg, Day 1): 306 ng/mL
Vd/F (both sexes, human, plasma, oral, 16 mg, young subjects, 16 mg, Day 1, read-out: Vz/F, Mean (SD)): 175 L
Tmax (both sexes, human, plasma, oral, 16 mg, young subjects, 16 mg, Day 1, read-out: tmax, Mean (SD)): 2.58 h
Tmax (both sexes, human, plasma, oral, 16 mg, young subjects, 16 mg, Day 1, read-out: tmax, Median): 3 h
AUC(0-t) (both sexes, human, plasma, oral, 16 mg, young subjects, 16 mg, Day 7, read-out: AUC0-24, Mean (SD)): 4300 ng·h/mL
AUC(0-inf) [2]: 8020 ng·h/mL
AUC(0-t) (both sexes, human, plasma, oral, 16 mg, young subjects, 16 mg, Day 7, read-out: AUClast, Mean (SD)): 7450 ng·h/mL
Cmax [2]: 413 ng/mL
half-life (both sexes, human, plasma, oral, 16 mg, young subjects, 16 mg, Day 7, read-out: t1/2, Mean (SD) (converted)): 20 h
Tmax (both sexes, human, plasma, oral, 16 mg, young subjects, 16 mg, Day 7, read-out: tmax, Mean (SD)): 1.75 h
Tmax (both sexes, human, plasma, oral, 16 mg, young subjects, 16 mg, Day 7, read-out: tmax, Median): 1.75 h
AUC(0-t) (both sexes, human, plasma, oral, 20 mg, young subjects, 20 mg, Day 1, read-out: AUC0-24, Mean (SD)): 3520 ng·h/mL
AUC(0-t) (both sexes, human, plasma, oral, 20 mg, young subjects, 20 mg, Day 1, read-out: AUClast, Mean (SD)): 3480 ng·h/mL
Cmax (both sexes, human, plasma, oral, 20 mg, young subjects, 20 mg, Day 1): 384 ng/mL
Vd/F (both sexes, human, plasma, oral, 20 mg, young subjects, 20 mg, Day 1, read-out: Vz/F, Mean (SD)): 148 L
Tmax (both sexes, human, plasma, oral, 20 mg, young subjects, 20 mg, Day 1, read-out: tmax, Mean (SD)): 2.17 h
Tmax (both sexes, human, plasma, oral, 20 mg, young subjects, 20 mg, Day 1, read-out: tmax, Median): 2.25 h
AUC(0-t) (both sexes, human, plasma, oral, 20 mg, young subjects, 20 mg, Day 7, read-out: AUC0-24, Mean (SD)): 6040 ng·h/mL
AUC(0-inf) [3]: 10500 ng·h/mL
AUC(0-t) (both sexes, human, plasma, oral, 20 mg, young subjects, 20 mg, Day 7, read-out: AUClast, Mean (SD)): 10100 ng·h/mL
Cmax [3]: 534 ng/mL
half-life (both sexes, human, plasma, oral, 20 mg, young subjects, 20 mg, Day 7, read-out: t1/2, Mean (SD) (converted)): 18.8 h
Tmax (both sexes, human, plasma, oral, 20 mg, young subjects, 20 mg, Day 7, read-out: tmax, Mean (SD)): 1.67 h
Tmax (both sexes, human, plasma, oral, 20 mg, young subjects, 20 mg, Day 7, read-out: tmax, Median): 1.5 h
Tmax (both sexes, human, plasma, oral, Day 1, read-out: median Tmax values, range): 2 to 3 h
Vd (both sexes, human, plasma, oral, Day 7, read-out: average apparent volume of distribution, range): 83 to 116 L
half-life (both sexes, human, plasma, oral, Day 7, read-out: average t½, range): 17 to 25 h
half-life (both sexes, human, plasma, oral, Day 7, read-out: average t½, range across genders): 21 to 24 h
Tmax (both sexes, human, plasma, oral, Day 7, read-out: median Tmax values, range): 1.5 to 3 h
Day 7/Day 1 Cmax Ratio, Mean (SD) (elderly, 12 mg): 1.53 (0.13)
Observed Accumulation Index, Mean (SD) (elderly, 12 mg): 2.12 (0.22)
Steady State Accumulation Index, Mean (SD) (elderly, 12 mg): 1.30 (0.11)
CL/F, Mean (SD) (elderly, 12 mg, Day 1): 5.87 (1.32) L/h
